Measurements as given in patent US4594357A, “Depot antiinflammatory agents” (Troponwerke GmbH & Co., priority 1983, dated 1986).

Key:
[1] = tested on: oedema of the rat paw induced by carrageenan; assay: carrageenan-induced rat paw oedema (oedema inhibition); assay type: in vivo, rat (male, strain Bor: WISW (SPF-Cpb)); details: for Oedema inhibition: rat; for % Inhibition after depot acid: i.m. 15 mg/kg as an oily solution
Procedure: The oedema-inhibiting and analgesic action of the test substances following intramuscular administration of an appropriate depot formulation was determined with the aid of oedema of the rat paw induced by carrageenan or by means of the Randall-Selitto test [Arch. int. Pharmacodyn. 111, 409 (1957)].
The experiments were carried out on male rats [strain: Bor: WISW (SPF-Cpb), weight about 200 g]. A depot product was administered once intramuscularly to the animals and the antiinflammatory action on the following days was tested by inducing carrageenan oedema. In each case three groups or 5 animals each were investigated per day, the first group consisting of 5 untreated animals, the 2nd group of 5 animals treated only with solvent (for example viscoleo) and the 3rd group of 5 animals treated with depot product (for example 2-(2-hydroxyethoxy)-ethyl-N(α,α,α-trifluoro-m-tolyl)anthranilate (formula 11) in viscoleo).
The paw volumes were measured by the method of F. Kemper and G. Ameln [Z. ges. exp. Med. 131, 407 (1959)], the difference between the paw volumes 5 hours after oedema provocation and the normal paw volume giving the oedema volume. The analgesic action was determined via pressure pain [Randall-Selitto, see above].
The inhibition of the carrageenan oedema following intramuscular administration of 2-(2-hydroxyethoxy)-ethyl N-(α,α,α-trifluoro-m-tolyl)-anthranilate (formula 11) in viscoleo after various doses in a constant administration volume of 0.03 ml (rat) is as follows: […]

[2] = biological half-life from the inflamed tissue by gas chromatography; assay type: in vivo; details: rat, read-out: biological half-life (HL) from the inflamed tissue (converted)
Procedure: (§1) It was possible to determine the biological half-life (HL) of the compound 11 in rats from the inflamed tissue by means of gas chromatography [H.-D. Dell, J. Fielder, H. Jacobi and J. Kolle, Arzneim.-Forsch./Drug.Res 31, 17-21 (1981)]. The HL from the tissue is about 8.5 hours. In contrast, an HL of 1.29 days is determined for elimination from the tissue (site of administration) following intramuscular administration of 11 in oily solution.

[3] = half-life for elimination from the tissue (site of administration); assay type: in vivo; details: tissue at administration site, im; rat, i.m. administration in oily solution; read-out: HL for elimination from the tissue (site of administration) (converted)
Procedure: as §1

[4] = tested on: oedema of the rat paw induced by carrageenan; details: carrageenan model, cited from earlier work

CCCCOC(=O)c1ccccc1Nc1cccc(C(F)(F)F)c1 [formula 13, butyl N-(α,α,α-trifluoro-m-tolyl)-anthranilate]
Oedema inhibition ([1]; formula 13 in viscoleo, single i.m. 15 mg/kg, 1 day after administration): 53.8%
Oedema inhibition ([1]; formula 13 in viscoleo, single i.m. 15 mg/kg, 2 days after administration): 46.5%
Oedema inhibition ([1]; formula 13 in viscoleo, single i.m. 15 mg/kg, 3 days after administration): 34.3%
Oedema inhibition ([1]; formula 13 in viscoleo, single i.m. 15 mg/kg, 4 days after administration): 37.1%
Oedema inhibition ([1]; formula 13 in viscoleo, single i.m. 15 mg/kg, 5 days after administration): 28.8%

O=C(OCCOCCO)c1ccccc1Nc1cccc(C(F)(F)F)c1 [formula 11, 2-(2-hydroxyethoxy)-ethyl N-(α,α,α-trifluoro-m-tolyl)-anthranilate]
Oedema inhibition ([1]; 10.5 mg/kg, single i.m., in viscoleo, 1 day after injection): 64.0%
Oedema inhibition ([1]; 10.5 mg/kg, single i.m., in viscoleo, 2 days after injection): 61.1%
Oedema inhibition ([1]; 10.5 mg/kg, single i.m., in viscoleo, 3 days after injection): 36.6%
Oedema inhibition ([1]; 10.5 mg/kg, single i.m., in viscoleo, 4 days after injection): 41.6%
Oedema inhibition ([1]; 15 mg/kg, single i.m., in viscoleo, 1 day after injection): 77.6%
Oedema inhibition ([1]; 15 mg/kg, single i.m., in viscoleo, 2 days after injection): 72.2%
Oedema inhibition ([1]; 15 mg/kg, single i.m., in viscoleo, 3 days after injection): 55.5%
Oedema inhibition ([1]; 15 mg/kg, single i.m., in viscoleo, 4 days after injection): 51.3%
Oedema inhibition ([1]; 19.5 mg/kg, single i.m., in viscoleo, 1 day after injection): 77.6%
Oedema inhibition ([1]; 19.5 mg/kg, single i.m., in viscoleo, 2 days after injection): 81.3%
Oedema inhibition ([1]; 19.5 mg/kg, single i.m., in viscoleo, 3 days after injection): 61.6%
Oedema inhibition ([1]; 19.5 mg/kg, single i.m., in viscoleo, 4 days after injection): 52.1%
half-life [2]: ~8.5 h
half-life [3]: 31 h
duration of oedema inhibition after peroral administration ([4]; about 24 hours): corresponds to the control value after about 24 hours
oedema inhibition after peroral administration [4]: powerful oedema inhibition

O=C(O)c1cccnc1Nc1cccc(C(F)(F)F)c1 [formula 6, 2-(α,α,α-Trifluoro-m-toluidino)-nicotinic acid]
% Inhibition after depot acid ([1]; 1 day after injection): 57.0%
% Inhibition after depot acid ([1]; 2 days after injection): 35.2%
% Inhibition after depot acid ([1]; 3 days after injection): 35.5%
% Inhibition after depot acid ([1]; 4 days after injection): 11.5%

O=C(O)c1ccccc1Nc1cccc(C(F)(F)F)c1 [formula 1, N--(α,α,α-Trifluoro-m-tolyl)-anthranilic acid]
% Inhibition after depot acid ([1]; 1 day after injection): 53.8%
% Inhibition after depot acid ([1]; 2 days after injection): 46.5%
% Inhibition after depot acid ([1]; 3 days after injection): 34.3%
% Inhibition after depot acid ([1]; 4 days after injection): 37.1%
% Inhibition after depot acid ([1]; 5 days after injection): 26.8%
